Experimental data published in BindingDB's records for doi:10.1021/bi300490r (University of Pittsburgh, 2012).
pIC50, pKi: −log10 of the molar value.

Assays:
[1] = molecular target: T1, DNA-(apurinic or apyrimidinic site) endonuclease (Homo sapiens, UniProt P27695); assay: Molecular Beacon Assay
Protocol: A fluorescenc-based molecular beacon assay to measure APE-1 protein activity and inhibition was performed as described.

[2] = molecular target: T1, DNA-(apurinic or apyrimidinic site) endonuclease; assay: Gel-Based Assay
From the text: In addition to the real-time fluorescence assay for studying inhibition of APE-1 activity, we also employed a gel-based assay to visualize and quantify repair activity of APE-1 and its inhibition.

T1 sequence (P27695 whole entry): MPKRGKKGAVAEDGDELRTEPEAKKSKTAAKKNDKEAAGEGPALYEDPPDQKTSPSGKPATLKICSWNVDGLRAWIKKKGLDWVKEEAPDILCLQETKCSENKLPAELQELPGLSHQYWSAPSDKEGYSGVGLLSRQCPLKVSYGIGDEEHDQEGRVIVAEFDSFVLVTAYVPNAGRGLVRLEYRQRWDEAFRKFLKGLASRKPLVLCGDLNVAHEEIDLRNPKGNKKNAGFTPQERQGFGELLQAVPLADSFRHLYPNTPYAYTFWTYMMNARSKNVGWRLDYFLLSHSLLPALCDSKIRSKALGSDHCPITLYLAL

Compound	pKi [1]	pIC50 [2]
COc1ccc(C(Cc2ccccc2)/N=N/c2ccc([N+](=O)[O-])c([N+](=O)[O-])c2)cc1 (configuration not stated) [NSC131534, 11]	5.17	–
COc1cccc(CN=Nc2cc(C)nc3cc4c(cc23)OCO4)c1 [NSC332384, 2]	6.66	5.00
CCn1c2ccccc2c2cc(CN=Nc3cc(C)nc4cc5c(cc34)OCO5)ccc21 [NSC332395, 4]	6.92	5.39
O=C(O)C(CCCCNc1ccc([N+](=O)[O-])cc1[N+](=O)[O-])Nc1ccc([N+](=O)[O-])cc1[N+](=O)[O-] (configuration not stated) [NSC89640, 9]	4.89	–
Cc1cc(N=NCc2c(C)n(C)n(-c3ccccc3)c2=O)c2cc3c(cc2n1)OCO3 [NSC332396, 5]	6.17	4.46
O=C(/C=C\c1ccc([N+](=O)[O-])cc1)NCCCCNC(=O)/C=C/c1ccc([N+](=O)[O-])cc1 [NSC107215, 10]	4.77	–
Cc1ccc2nc(C)cc(N=NC(C)c3cn(C)n(-c4ccccc4)c3=O)c2c1 (configuration not stated) [NSC300598, 7]	4.96	–
O=C(CC(=Nc1ccccc1)C(=O)c1ccccc1)c1ccccc1 [NSC402686, 14]	4.43	–

The remaining lines, values ahead:

pKi [1]	pIC50 [2]	Compound
6.74	5.36	Cc1cc(N=NC(C)c2cn(C)n(-c3ccccc3)c2=O)c2cc3c(cc2n1)OCO3 (configuration not stated) [NSC332398, 1]
5.31	–	N=c1[nH]nc2nc(CC(=O)c3ccccc3[N+](=O)[O-])c(CC(=O)c3ccccc3[N+](=O)[O-])nn12 [NSC614430, 13]
6.72	5.54	Cc1cc(N=NCc2ccc3c(c2)OCO3)c2cc3c(cc2n1)OCO3 [NSC332389, 3]
–	< 4.00	C/C(=N\Nc1cc(C)c2ccccc2n1)c1cn(C)n(-c2ccccc2)c1=O [NSC332410, 8]
